This note sets out measurements from paper PMC4240912, “Multifaceted interplay between lipophilicity, protein interaction and luminescence parameters of non-intercalative ruthenium(II) polypyridyl complexes controlling cellular imaging and cytotoxic properties” (Journal of Biological Inorganic Chemistry, 2014).

Data set [1] addresses human serum albumin (HSA) (Homo sapiens, UniProt P02768). The data set is described as follows: HSA fluorescence quenching (protein-binding experiments). The conditions noted are these: [HSA] = 1 μM, [Ru] 0–10 μM, PBS pH 7.4, 37 °C. Here is the method:
The protein stock solution was prepared by dissolving human serum albumin (HSA) in water and its concentration was determined spectrophotometrically from the molar absorptivity of 4.4 × 10^4 cm^−1 M^−1 at 280 nm. The emission spectra were recorded between 305 and 500 nm upon excitation at 295 nm resulting in selective excitation of tryptophan residue of HSA. The average of three scans was subjected to smoothing and the fluorescence intensities were corrected due to dilution effects. Protein-binding experiments were conducted by measuring fluorescence spectra of protein solution (1 μM) in the presence of different amounts of ruthenium compounds (0–10 μM) in PBS buffer pH 7.4 at 37 °C. Ru–protein solutions were allowed to incubate for 5 min before the emission spectra were recorded. The quantum yield and lifetime of luminescence for ruthenium complexes in the present of HSA (1 μM) was measured using the same procedure as described for ruthenium complexes alone (the HSA/Ru-complex ratio is given in the figure caption). […]
When molecules are bound to HSA, the change in fluorescence of HSA (Trp214) is induced ether by quenching by binding of molecules in close proximity of the residue or by conformational change of protein caused by the binding or other interactions. Albumin […]
polypyridyl complexes. The contribution to the observed emission from ruthenium complex is marginal. The Stern-Volmer equation has been employed for quantitative analysis of the […]
where F0 and F are the fluorescence intensities of HSA in the absence and the presence of quencher (Q, Ru complex), respectively; kq is the bimolecular quenching constant; τ0 is the average lifetime of the HSA in the absence of quencher (7 × 10-9 s), [Q] is the concentration of quencher, KSV is the Stern–Volmer constant. Since ruthenium complexes both absorb light at the excitation and the emission wavelengths in order to correlate the inner filter effect the following equation was used: where Fcor and F are the corrected/uncorrected fluorescence intensities of HSA, Aem and Aex are the absorbance value of the solution at the emission and the excitation wavelength […]
quenching involving some type of binding interaction between HSA and ruthenium complexes. In this case the Stern-Volmer constant can be consider as an association constant for formation of HSA-Ru-complexes adducts. […]
(also on this page, place not known: nm , Stern -Volmer ][1][1 0 0 QKQkF SVq ·+=·+= τ 10 -9 [ Q] Stern –Volmer es 210 exem AA cor FF + ·= F -binding ct -DNA ba nds complex w ith DNA)

The nature of data set [2]: n-octan-1-ol/water partition (lipophilicity). It counts as physicochemical. The following applies: 25 °C. Here is the method: The lipophilicity of the ruthenium(II) complexes, which is referred to log P o/w (n-octan-1-ol/water partition coefficient), was measured as following. Ruthenium complexes were dissolved in n-octan-1-ol (to mM concentration), then solutions were added to water and the mixtures were stirred sufficiently for partitioning at 25 °C for 24 h. After that the mixtures were left for equilibration for another 2 h. The concentration of the compounds in the water phase was measured spectrophotometrically and P o/w value was calculated according to the equation: PO/w=coctanolbefore-cwater/cwater , where coctanolbefore is an initial concentration of ruthenium complex, c water denotes final concentration in water. The experiment was conducted in triplicates.

Data set [3] has as its system Human lung adenocarcinoma epithelial cell line (A549). The experiment in a line: Alamar Blue cell viability, A549. It counts as cell-based. The conditions noted are these: A549, 24 h. How it is done:
(§1) 10% FBS, 1% peniciline and streptomycin and 0.2% fungizone. Cells were routinely cultured at 37 °C in a humidified incubator in 5% CO2 atmosphere.
(§2) Cell viability was measured using Alamar Blue assay. Cells were seeded on 96 wells plate with density of 1 × 10^4 cells per cm2 and cultured for 1 day. Then cells were incubated with various concentrations of compounds in medium with or without 2% FBS for 24 and 48 h under normoxic and hypoxic conditions in the darkness. Next cells were washed with PBS and incubated in Alamar Blue solution for 3 h. The cell viability was quantified at 605 nm using 560 nm excitation light (VICTOR 3V multilabel plate reader PerkinElmer or Tecan Infinite200 Reader). Experiments were performed in triplicates and each experiment was performed at least three times to get the mean values ± standard derivation. The viability was calculated with regard to the untreated cells control. The IC50 values were determined using Hill equation (Origin 9.0). […]

Data set [4] has as its system FVB mouse lung microvascular endothelial cells (MLuMEC FVB). The experiment in a line: Alamar Blue cell viability, MLuMEC. It counts as cell-based. The following applies: 24 h. Here is the method: (§3) FVB mouse lung microvascular endothelial cells (MLuMEC FVB) and murine endothelial cells isolated from aorta-gonad-mesonephros (AGM) region of 10.5 dpc embryos (MAgEC 10.5) were cultured in OptiMEM with Glutamax-I (Gibco Invitrogen) supplemented with 2% fetal bovine serum (FBS), 0.4% gentamycin and 0.2% fungizone. […]
as §1, §2
On the technique in general: Alamar Blue is a resazurin reagent that responds to reducing activity.

The test system of data set [5] is murine endothelial cells isolated from aorta-gonad-mesonephros (AGM) region of 10.5 dpc embryos (MAgEC 10.5). The experiment in a line: Alamar Blue cell viability, MAgEC 10.5. It counts as cell-based. The following applies: MAgEC 10.5, 24 h. Here is the method:
as §3, §1, §2

Data set [6] is described as follows: Luminescence quantum yield and lifetime in aqueous solution. It counts as physicochemical. Here is the method:
UV–Vis absorption spectra were recorded on a Perkin Elmer Lambda 35 spectrophotometer. Luminescence measurements were performed on a spectrofluorimeter Perkin Elmer LS55. The spectra were recorded at the room temperature in aqueous solution containing small amount of DMSO (<0.008 % v/v). The emission spectra were recorded between 470 and 860 nm upon excitation at 463 nm. The average of three scans was subjected to smoothing. For determination of the quantum yield of luminescence (Φ), aqueous solutions of [Ru(bpy)3]^2+ with a small amount of DMSO (<0.008 % v/v) were used as standards (Φ = 0.028 [14] and 0.042 [20] for air-equilibrium and deoxygenated conditions, respectively). The spectra were recorded for ruthenium complexes at the concentration less than 0.05 absorbance unit at the excitation wavelength. Values were calculated according to the following equation [21]: Φ=Φref×Aref/A×I/Iref×n^2/nref2, where I is the integrated intensity of luminescence, A is the optical density, and n is the refractive index, ref refers to the values for reference. The mean value from minimum three independent experiments was calculated.
The luminescence lifetime measurements were performed with a single photon counting technique using Fluorolog-3, Horiba Jobin Yvon. The excitation wavelength was set at 464 nm (NanoLed Diodes) and the average lifetime of luminescence was monitored at 621 nm. Luminescence decays were collected with 1,000 counts in the peak. The instrument response functions were measured using a light scattering solution of Ludox (colloidal silica, Sigma-Aldrich). Experiments were conducted at room temperature. The DAS6 software (HORIBA Scientific) was used for deconvolution of the obtained decays and for calculation of the lifetime values. The quality of the fit was judged by the χ ^2 parameter (the goodness of fit evaluation). One-exponential fit was determined to be an optimal description of the obtained results for the ruthenium compounds.

Where [7] appears, read: air-equilibrated conditions, excitation 463 nm.

Chain of human serum albumin (HSA) (P02768 25-609): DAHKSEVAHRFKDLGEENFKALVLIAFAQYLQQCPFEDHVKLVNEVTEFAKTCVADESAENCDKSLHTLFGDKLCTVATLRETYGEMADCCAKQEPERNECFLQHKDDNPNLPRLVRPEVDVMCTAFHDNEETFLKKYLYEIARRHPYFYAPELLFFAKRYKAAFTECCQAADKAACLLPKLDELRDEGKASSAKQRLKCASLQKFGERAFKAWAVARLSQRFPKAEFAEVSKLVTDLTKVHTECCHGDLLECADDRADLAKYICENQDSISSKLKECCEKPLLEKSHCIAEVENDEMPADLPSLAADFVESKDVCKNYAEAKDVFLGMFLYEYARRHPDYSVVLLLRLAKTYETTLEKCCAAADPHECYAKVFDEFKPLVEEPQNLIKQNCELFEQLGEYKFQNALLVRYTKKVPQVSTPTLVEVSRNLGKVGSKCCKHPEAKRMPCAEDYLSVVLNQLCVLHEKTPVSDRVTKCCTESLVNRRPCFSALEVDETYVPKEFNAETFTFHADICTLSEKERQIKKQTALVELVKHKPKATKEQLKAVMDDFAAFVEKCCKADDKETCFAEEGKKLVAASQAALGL

Consider `Cc1ccnc(-c2cc(C)ccn2)c1.[Ru+2].c1ccc(-c2ccnc3c2ccc2c(-c4ccccc4)ccnc23)cc1.c1ccc(-c2ccnc3c2ccc2c(-c4ccccc4)ccnc23)cc1` [[Ru(dip)2(CH3bpy-CH3)]^2+], for which the “K a, association constant for formation of HSA-ruthenium(II) polypyridyl complex adducts” value (from here on “K a, association constant for formation”) in data set [1] was 1.24 ± 0.06 ×10^5 M^−1. The “log P o/w” value in data set [2] amounted to 0.484 ± 0.046. Also, the IC50 (in general, the concentration that inhibits the measured activity by half) in data set [3] (with serum (2%)) was found to be 11.6 ± 2.19 µM; in data set [3] (without serum) it was 5.47 ± 0.87 µM; in data set [4] (with serum (2%)) it was 8.32 ± 0.06 µM; in data set [4] (without serum), 3.36 ± 0.35 µM; in data set [5] (with serum (2%)), 6.28 ± 0.52 µM; in data set [5] (without serum), 2.45 ± 0.42 µM. In addition, the “τ, luminescence lifetime” value in data set [6] (air-equilibrated conditions) is on record as 690 ± 10 ns; in data set [6] (deoxygenated conditions), 2.23 ± 0.01 µs. Further, the “φ, quantum yield of luminescence” value was 0.0254 ± 0.0009 in data set [6] (setting [7]) and 0.0778 ± 0.0016 in data set [6] (deoxygenated conditions).
In the case of `Cc1ccnc(-c2cc(C(=O)[O-])ccn2)c1.[Ru+2].c1ccc(-c2ccnc3c2ccc2c(-c4ccccc4)ccnc23)cc1.c1ccc(-c2ccnc3c2ccc2c(-c4ccccc4)ccnc23)cc1` [[Ru(dip)2(CH3bpy-COO)]^+], in data set [1], the “K a, association constant for formation” value was 1.17 ± 0.04 ×10^5 M^−1. In data set [2], the “log P o/w” value came out at 1.857 ± 0.079. For the same compound, the IC50 stood at 9.79 ± 0.89 µM in data set [3] (with serum (2%)); 6.05 ± 1.87 µM in data set [3] (without serum); 18.1 ± 2.19 µM in data set [4] (with serum (2%)); 7.74 ± 1.26 µM in data set [4] (without serum); 16 ± 1.5 µM in data set [5] (with serum (2%)); 7.23 ± 0.53 µM in data set [5] (without serum). Besides, the entries for the “τ, luminescence lifetime” value in data set [6] (air-equilibrated conditions) and in data set [6] (deoxygenated conditions) were 530 ± 10 ns and 1.02 ± 0.01 µs, respectively. Besides, the “φ, quantum yield of luminescence” value in data set [6] (setting [7]) was found to be 0.0226 ± 0.0012; in data set [6] (deoxygenated conditions), 0.0429 ± 0.0004.
Turning to `[Ru+2].c1ccc(-c2ccccn2)nc1.c1ccc(-c2ccnc3c2ccc2c(-c4ccccc4)ccnc23)cc1.c1ccc(-c2ccnc3c2ccc2c(-c4ccccc4)ccnc23)cc1` [[Ru(dip)2(bpy)]^2+], the “K a, association constant for formation” value in data set [1] is 0.78 ± 0.02 ×10^5 M^−1. Moreover, in data set [2], the “log P o/w” value was found to be 0.328 ± 0.026. For the same compound, the IC50 came to 27.7 ± 1.2 µM in data set [3] (with serum (2%)); 13.5 ± 5.3 µM in data set [3] (without serum); 11.7 ± 1.6 µM in data set [4] (with serum (2%)); 4.7 ± 0.41 µM in data set [4] (without serum); 16.7 ± 1.88 µM in data set [5] (with serum (2%)); 4.15 ± 0.57 µM in data set [5] (without serum). For the same compound, the “τ, luminescence lifetime” value is 760 ± 10 ns in data set [6] (air-equilibrated conditions) and 2.51 ± 0.01 µs in data set [6] (deoxygenated conditions). In addition, the figures for the “φ, quantum yield of luminescence” value in data set [6] (setting [7]) and in data set [6] (deoxygenated conditions) were 0.0367 ± 0.0004 and 0.1245 ± 0.0004, respectively.
Take `O=[N+]([O-])c1nccn1CCCc1ccnc(-c2ccccn2)c1.[Ru+2].c1ccc(-c2ccnc3c2ccc2c(-c4ccccc4)ccnc23)cc1.c1ccc(-c2ccnc3c2ccc2c(-c4ccccc4)ccnc23)cc1` [[Ru(dip)2(bpy-NitroIm)]^2+]: the “K a, association constant for formation” value in data set [1] was 1.10 ± 0.06 ×10^5 M^−1. Also, the “log P o/w” value in data set [2] is 0.413 ± 0.083. The half-inhibitory concentration (IC50) came out at 17.5 ± 5.7 µM in data set [3] (with serum (2%)); 11.8 ± 1.2 µM in data set [3] (without serum); 10.4 ± 1.31 µM in data set [4] (with serum (2%)); 6.08 ± 0.7 µM in data set [4] (without serum); 7.4 ± 0.81 µM in data set [5] (with serum (2%)); 4.65 ± 0.62 µM in data set [5] (without serum).
Take “[Ru(dip)2(1,3-dicyclohexyl-1-[4-carbonyl-(4′-methyl-2,2′-bipyridyl)]-urea)]Cl2 [[Ru(dip)2(CH3bpy-DCU)]^2+]”: the “K a, association constant for formation” value in data set [1] is given as 0.98 ± 0.03 ×10^5 M^−1. Further, the “log P o/w” value in data set [2] worked out at 1.114 ± 0.012. For the same compound, the IC50 was found to be 7.22 ± 0.34 µM in data set [3] (with serum (2%)); 5.43 ± 0.11 µM in data set [3] (without serum); 5.84 ± 0.24 µM in data set [4] (with serum (2%)); 2.28 ± 0.61 µM in data set [4] (without serum); 4.62 ± 0.22 µM in data set [5] (with serum (2%)); 2.54 ± 1.12 µM in data set [5] (without serum). Besides, the “τ, luminescence lifetime” value in data set [6] (air-equilibrated conditions) turned out to be 460 ± 10 ns; in data set [6] (deoxygenated conditions), 1.85 ± 0.02 µs. For the same compound, the “φ, quantum yield of luminescence” value in data set [6] (setting [7]) is reported as 0.0044 ± 0.0002; in data set [6] (deoxygenated conditions), 0.0049 ± 0.0002.
